Results on eleven compounds are retold here after ChEMBL document CHEMBL4706632, “Development of Potential Antitumor Agents from the Scaffolds of Plant-Derived Terpenoid Lactones” (J Med Chem, 2020).

One assay concerns LNCaP. Kind of assay: Cytotoxicity against human LNCAP cells incubated for 48 hrs clonogenic survival assay. The assay is classed as functional, cell-based. To be noted: time 48 hrs, read-out: LD50 (the source's name).
Another assay relates to CCRF S-180. Kind of assay: Cytotoxicity against mouse CCRF S-180 cells incubated for 48 hrs by sulforhodamine B staining based ELISA. The assay is classed as functional, cell-based. The following applies: CCRF S-180, 48 h. A general note: Sulforhodamine B stains cellular protein and so reports cell mass.
The test system of assay [1] is MCF7. Briefly: Cytotoxicity against human MCF7 cells incubated for 48 hrs by sulforhodamine B staining based ELISA. In kind it is functional, cell-based. To be noted: MCF7, 48 h.
For the next assay, the system named is EL4. Briefly: Cytotoxicity against mouse EL4 cells incubated for 48 hrs by sulforhodamine B staining based ELISA. The assay is classed as functional, cell-based. To be noted: EL4, 48 h.
A short description of assay [2]: Cytotoxicity against human TSU-Pr1 cells incubated for 2 hrs. In kind it is functional, cell-based. The following applies: TSU-Pr1, 2 h.
The target in assay [3] is Sarcoplasmic/endoplasmic reticulum calcium ATPase 1 (Oryctolagus cuniculus, UniProt P04191). Kind of assay: Inhibition of rabbit skeletal muscle SERCA1 assessed as reduction in calcium uptake preincubated for 10 mins followed by ATP addition and measured after 4 mins by scintillation liquid method.
A further assay has as its system HepG2. Briefly: Cytotoxicity against human HepG2 cells incubated for 48 hrs by SRB assay. In kind it is functional, cell-based. To be noted: HepG2, 48 h.
In a further assay the test system is IMR-32. Kind of assay: Cytotoxicity against human IMR-32 cells incubated for 48 hrs by SRB assay. The assay is classed as functional, cell-based. To be noted: IMR-32, 48 h.
The test system of assay [4] is HeLa. Kind of assay: Cytotoxicity against human HeLa cells incubated for 48 hrs by SRB assay. The assay is classed as functional, cell-based.
In a further assay the test system is MDA-MB-435. Kind of assay: Antiproliferative activity against human MDA-MB-435 cells incubated for 48 hrs by [3H]-thymidine incorporation assay. In kind it is functional, cell-based. (Incorporation of labelled thymidine or its analogues reports DNA synthesis.)
Assay [5] has as its system MCF7. Kind of assay: Antiproliferative activity against human MCF7 cells incubated for 48 hrs by [3H]-thymidine incorporation assay. In kind it is functional, cell-based.
The test system of a further assay is SW480. Briefly: Antiproliferative activity against human SW480 cells incubated for 72 hrs by MTT assay. In kind it is functional, cell-based. To be noted: SW480, 72 h. Background: Formazan colour is commonly taken as a measure of viable cells.
The next assay deals with A2058. Briefly: Cytotoxicity against human A2058 cells incubated for 48 hrs by MTT assay. To be noted: A2058, 48 h. In kind it is functional, cell-based.
The test system of assay [6] is MDA-MB-231. Briefly: Cytotoxicity against human MDA-MB-231 cells incubated for 48 hrs by MTT assay. To be noted: MDA-MB-231, 48 h. The assay is classed as functional, cell-based.
Assay [7] has as its system HT-29. Briefly: Cytotoxicity against human HT-29 cells incubated for 48 hrs by MTT assay. In kind it is functional, cell-based. To be noted: HT-29, 48 h.
The test system of assay [8] is HeLa. Briefly: Antiproliferative activity against human HeLa cells. The assay is classed as functional, cell-based.
For assay [9], the system named is HT-29. Briefly: Antiproliferative activity against human HT-29 cells. In kind it is functional, cell-based.
The next assay deals with L1210. Kind of assay: Cytotoxicity against mouse L1210 cells. The assay is classed as functional, cell-based.
For a further assay, the system named is PANC-1. Briefly: Cytotoxicity against human Panc-1 cells incubated for 48 hrs by CCK8 assay. To be noted: PANC-1, 48 h. In kind it is functional, cell-based.
In the next assay the test system is P388. Kind of assay: Antiproliferative activity against mouse P388 cells. In kind it is functional, cell-based.
In assay [10] the test system is MCF7. Briefly: Antiproliferative activity against human MCF7 cells incubated for 48 hrs by SRB assay. The assay is classed as functional, cell-based. The following applies: MCF7, 48 h.
For assay [11], the system named is HL-60. Briefly: Antiproliferative activity against human HL-60 cells. The assay is classed as functional, cell-based.
The test system of assay [12] is HCT-116. Briefly: Cytotoxicity against human HCT-116 cells. The assay is classed as functional, cell-based.
Assay [13] concerns HL-60. Kind of assay: Antiproliferative activity against human HL-60 cells incubated for 24 hrs by MTT assay. In kind it is functional, cell-based. To be noted: HL-60, 24 h.
A short description of assay [14]: Inhibition of PAFR in New Zealand rabbit platelets assessed as reduction in PAF-induced platelet aggregation measured within 5 mins by aggregometry analysis. The assay is classed as tissue-based. To be noted: Oryctolagus cuniculus.
Assay [15] is described as follows: Suppression of ZEB1 protein level in human T-24 cells incubated for 24 hrs by Western blot analysis. In kind it is functional, cell-based. To be noted: T-24, 24 h.
The nature of assay [16]: Inhibition of [3H]PAF-acether binding to PAFR in rabbit platelet plasma membranes incubated for 1 hr. The assay is classed as cell membranes, Oryctolagus cuniculus, Cell membrane.
The nature of assay [17]: Antiproliferative activity against human OVCA429 cells incubated for 72 hrs by MTT assay. The assay is classed as functional, cell-based. The following applies: OVCA429, 72 h.
The subject of assay [18] is HCT-116. Briefly: Antiproliferative activity against human HCT-116 cells incubated for 72 hrs by WST-1 assay. The assay is classed as functional, cell-based. To be noted: HCT-116, 72 h.
For assay [19], the system named is MDA-MB-231. Kind of assay: Cytotoxicity against human MDA-MB-231 cells incubated for 72 hrs by MTT assay. In kind it is functional, cell-based. The following applies: MDA-MB-231, 72 h.
Assay [20] relates to MCF7. Kind of assay: Cytotoxicity against human MCF-7 cells incubated for 72 hrs by MTT assay. In kind it is functional, cell-based. To be noted: MCF7, 72 h.

Molecules are shown by their SMILES. pIC50: −log10 of the molar value.

Chain of Sarcoplasmic/endoplasmic reticulum calcium ATPase 1 (P04191 whole entry): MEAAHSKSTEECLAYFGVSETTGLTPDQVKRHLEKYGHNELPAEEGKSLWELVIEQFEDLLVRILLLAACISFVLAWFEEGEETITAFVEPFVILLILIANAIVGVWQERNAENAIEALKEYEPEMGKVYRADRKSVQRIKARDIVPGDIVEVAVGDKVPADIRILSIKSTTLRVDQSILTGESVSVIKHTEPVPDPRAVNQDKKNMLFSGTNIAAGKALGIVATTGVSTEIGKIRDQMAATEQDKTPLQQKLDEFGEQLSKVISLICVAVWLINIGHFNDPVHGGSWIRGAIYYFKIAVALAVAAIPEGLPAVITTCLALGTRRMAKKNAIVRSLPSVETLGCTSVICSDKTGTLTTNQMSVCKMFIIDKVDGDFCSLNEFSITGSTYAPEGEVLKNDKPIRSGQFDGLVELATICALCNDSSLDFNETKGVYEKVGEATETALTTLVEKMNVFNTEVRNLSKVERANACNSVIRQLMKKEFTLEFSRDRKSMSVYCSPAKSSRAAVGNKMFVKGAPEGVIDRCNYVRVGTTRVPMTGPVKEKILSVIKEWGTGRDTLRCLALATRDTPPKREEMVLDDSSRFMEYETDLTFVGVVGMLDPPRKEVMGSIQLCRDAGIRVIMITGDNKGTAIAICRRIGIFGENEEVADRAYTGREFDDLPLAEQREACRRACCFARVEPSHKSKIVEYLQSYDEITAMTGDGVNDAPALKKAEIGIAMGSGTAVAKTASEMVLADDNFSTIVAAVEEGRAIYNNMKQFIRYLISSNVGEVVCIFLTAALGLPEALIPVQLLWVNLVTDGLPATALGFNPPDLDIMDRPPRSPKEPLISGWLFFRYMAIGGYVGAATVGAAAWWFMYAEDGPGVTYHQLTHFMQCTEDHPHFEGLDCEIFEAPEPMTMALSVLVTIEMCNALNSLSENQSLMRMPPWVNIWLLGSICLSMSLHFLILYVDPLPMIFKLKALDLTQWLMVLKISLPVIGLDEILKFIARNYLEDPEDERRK

As for `C/C=C(/C)C(=O)O[C@H]1C(C)=C2[C@H]([C@@H]1OC(=O)CCCCCCC)[C@@](C)(OC(C)=O)C[C@H](OC(=O)CCC)[C@@]1(O)[C@H]2OC(=O)[C@@]1(C)O` [THAPSIGARGIN], the CC50 in the assay on LNCaP amounted to 10 nM. Further, the pIC50 (as a rule, −log10 of the IC50, conventionally taken in molar units) in the assay with CCRF S-180 is 7.52; in the assay with MCF7 [1], 5.64; with EL4, 7.00; in [2], 7.52; in assay [3], 8.41.
For `C=C1[C@@H]2CC[C@@]3(C)[C@H](c4ccoc4)OC(=O)C[C@]13O[C@H]1C[C@H](OC(=O)CN3CCN(C(=O)c4ccccc4)CC3)C(C)(C)[C@H](CC(=O)OC)[C@]12C`, the pIC50 is 8.00 with HepG2, less than 4.00 in the assay on IMR-32 and 4.85 in the assay on HeLa [4].
As for `CC1(C)OC(=O)C=C[C@]2(C)[C@H]3CC[C@@]4(C)[C@H](c5ccoc5)OC(=O)[C@H]5O[C@]54[C@]3(C)C(=O)C[C@@H]12` [OBACUNONE], the pIC50 in the assay with MDA-MB-435 was 5.17; with MCF7 [5] it was 7.70; in the assay with SW480, 4.25.
Regarding `C=C1CC[C@@H]2[C@](C)(COC(=O)CN(C)c3ccc([N+](=O)[O-])c4nonc34)[C@H](O)CC[C@@]2(C)[C@@H]1C/C=C1/C(=O)OC[C@H]1OC(C)=O`, the pIC50 was 5.35 in the assay with A2058, 5.01 in the assay on MDA-MB-231 [6] and 4.92 with HT-29 [7].
Take `COC(=O)[C@@]12OC[C@]34[C@H]([C@@H](O)[C@@H]1O)[C@@]1(C)CC(=O)C(O)=C(C)[C@@H]1C[C@H]3OC(=O)[C@H](OC(=O)/C=C(\C)C(C)C)[C@@H]24` [BRUCEANTIN]: the results for the negative logarithm of the IC50 (pIC50) in the assay on HeLa [8] and in the assay with HT-29 [9] were 7.54 and 7.66, respectively.
In the assay with L1210, `C=C1[C@@H](O)[C@@]2(O)OC[C@@]34[C@H]1[C@@H](OC(=O)/C=C(\C)CCCCC)C(=O)O[C@@H]3C[C@H]1C(C)=CC(=O)[C@@H](O)[C@]1(C)[C@@H]24` showed a pIC50 of 7.05.
The compound `C=C1[C@@H](O)[C@@]2(O)OC[C@@]34[C@H]1[C@@H](OC(=O)/C=C/CCCCCCCC)C(=O)O[C@@H]3C[C@H]1C(C)=CC(=O)[C@@H](O)[C@]1(C)[C@@H]24` had a pIC50 with L1210 of 7.05.
`CC(C)[C@]12O[C@H]1[C@@H]1O[C@]13[C@]1(O[C@H]1C[C@H]1C4=C(CC[C@@]13C)C(=O)OC4)[C@@H]2O` [TRIPTOLIDE] had a pIC50 in the assay on PANC-1 of 6.70.
With `C=C1CC[C@@H]2[C@](C)(CO)[C@H](O)CC[C@@]2(C)[C@@H]1C/C=C1/C(=O)OC[C@H]1O` [ANDROGRAPHOLIDE], the pIC50 with P388 is 5.54; in the assay with A2058 it was 4.59; in the assay with MCF7 [10], 4.82; with HL-60 [11], 5.15; with MDA-MB-231 [6], less than 4.52; in the assay with HCT-116 [12], less than 4.40. The pIC50 in the assay with HT-29 [7] was less than 4.52; in the assay on HL-60 [13] it was 5.62.
Turning to `C[C@@H]1C(=O)O[C@H]2[C@H](O)[C@@]34[C@H]5C[C@@H](C(C)(C)C)[C@]36[C@@H](OC(=O)[C@@H]6O)O[C@@]4(C(=O)O5)[C@@]12O` [GINKOLIDE B], the pIC50 is 6.89 in assay [14], 6.30 in [15], 6.60 in assay [16] and less than 4.30 in [17].
With `COC(=O)[C@@]12OC[C@]34[C@H]([C@@H](O)[C@@H]1O)[C@@]1(C)CC(=O)C(O)=C(C)[C@@H]1C[C@H]3OC(=O)[C@H](OC(=O)CC(C)C)[C@@H]24` [BRUCEINE A], the pIC50 in the assay on HCT-116 [18] is 7.09; in the assay with HeLa [8], 5.96; in the assay with MDA-MB-231 [19] it was 6.64; in the assay on HL-60 [11] it was 6.89; with HT-29 [9] it was 5.51; with MCF7 [20], 6.74.
